For assay [1], the target named is T1, Ribosomal protein S6 kinase alpha-3 (Homo sapiens, UniProt P51812). The assay can be described thus: Inhibition of His6-tagged RSK2 C-terminal domian expressed in Escherichia coli after 30 mins.
Assay [2] has as its target T1, Ribosomal protein S6 kinase alpha-3. Kind of assay: Inhibition of PMA-stimulated RSK2 phosphorylation in HEK293 cells after 1 hr by Western blotting analysis. The class given is cell-based.
For assay [3], the system named is HEK293. The assay can be described thus: Inhibition of RSK-mediated rpS6 phosphorylation at Ser236 residues in human PMA-stimulated HEK 293 cells at 30 uM after 1 hr by Western blotting. The class given is cell-based.
For assay [4], the system named is HEK293. Kind of assay: Inhibition of RSK-mediated rpS6 phosphorylation at Ser235 residues in human PMA-stimulated HEK 293 cells at 30 uM after 1 hr by Western blotting. The class given is cell-based. (Immunoblotting shows a protein as a band on a membrane.)

T1 sequence (P51812 whole entry): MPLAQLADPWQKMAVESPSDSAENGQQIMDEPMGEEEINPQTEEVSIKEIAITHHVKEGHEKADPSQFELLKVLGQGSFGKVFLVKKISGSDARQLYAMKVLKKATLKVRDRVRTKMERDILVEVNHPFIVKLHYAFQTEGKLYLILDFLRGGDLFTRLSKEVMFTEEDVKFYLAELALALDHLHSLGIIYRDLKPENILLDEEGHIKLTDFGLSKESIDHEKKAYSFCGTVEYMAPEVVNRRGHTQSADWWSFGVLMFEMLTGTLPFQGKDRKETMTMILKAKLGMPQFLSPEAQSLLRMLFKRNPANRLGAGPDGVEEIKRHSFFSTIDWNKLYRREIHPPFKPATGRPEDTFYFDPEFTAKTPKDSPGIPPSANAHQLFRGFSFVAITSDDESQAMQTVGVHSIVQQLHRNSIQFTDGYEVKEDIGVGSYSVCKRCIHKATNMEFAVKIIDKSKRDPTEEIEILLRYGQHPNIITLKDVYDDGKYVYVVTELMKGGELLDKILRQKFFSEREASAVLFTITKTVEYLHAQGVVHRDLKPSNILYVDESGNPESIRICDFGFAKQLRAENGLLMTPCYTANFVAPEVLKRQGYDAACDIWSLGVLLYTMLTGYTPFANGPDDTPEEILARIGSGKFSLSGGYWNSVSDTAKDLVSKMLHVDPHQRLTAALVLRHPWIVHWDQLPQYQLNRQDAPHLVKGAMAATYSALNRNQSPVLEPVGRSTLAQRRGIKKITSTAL

For `CC1=CC(C)=[N+]2C1=Cc1ccc(CCC(=O)NCCCCCC(=O)NCCCCNC(=O)OCCCn3c(C(=O)CF)c(-c4ccc(C)cc4)c4c(N)ncnc43)n1[B-]2(F)F`, the IC50 in assay [1] turned out to be 1.7 µM. For the same compound, in assay [2], the EC50 worked out at 10 µM.

With `CO[C@H]1C[C@@H]2CC[C@@H](C)[C@@](O)(O2)C(=O)C(=O)N2CCCC[C@H]2C(=O)O[C@H]([C@H](C)C[C@@H]2CC[C@@H](O)[C@H](OC)C2)CC(=O)[C@H](C)/C=C(\C)[C@@H](O)[C@@H](OC)C(=O)[C@H](C)C[C@H](C)/C=C/C=C/C=C/1C`, the inhibition in the assay with HEK293 [3] and with HEK293 [4] was 76% each time.

A word on the IC50: it is the concentration that inhibits the measured activity by half. For orientation: EC50 means the concentration needed to bring the measured effect to its halfway point. Read a high EC50 as lower potency in that assay. Usually inhibition stands for the relative decrease from the control value, in per cent. A lower inhibition goes with little suppression.
